Earlier results on two molecules are cited in US5173423A, “Process for breeding a glabrous variety of rice crop and a glabrous plant” (Sumitomo Chemical Company Limited, priority 1990, dated 1992).

This data set has as its system Ginbozu. Conditions: mutation breeding; induced variation: chlorosis; variety Ginbozu.

Turning to `Nc1ncc2[nH]cnc2n1` [2-AP, 2-aminopurine], the “Frequency of occurrence of variants” value was 0.57%. As to `O=c1[nH]cc(Br)c(=O)[nH]1` [5-BU, 5-bromouracil], the “Frequency of occurrence of variants” value is 1.0%.
